Consider four molecules from ChEMBL document CHEMBL1123200 (J Med Chem, 1986).

The species named for assay [1] is Rattus norvegicus. Briefly: Inhibition was measured for [3H]GABA-uptake from rat synaptosomal membrane. It is filed as functional.
For assay [2], the species on record is Rattus norvegicus.
The species named for assay [3] is Rattus norvegicus. This is another data set of the same source.

As a reminder, the Ki is the dissociation constant of the complex between target and ligand, obtained from inhibition or displacement. As to `O=C(O)C1=CC(=C(c2ccccc2)c2ccccc2)CNC1`, in assay [1], the Ki was found to be 104 µM.
For the molecule `O=C(O)C1CCCNC1` (stereo not given) [NIPECOTIC ACID], the affinity in assay [1], expressed as Ki, was 3.8 µM.
On the same count and under the same terms, the result for `CN1CC(C(=O)O)=CC(=C(c2ccccc2)c2ccccc2)C1` reads 12.9 µM.
As usually defined, the Km is the substrate concentration at which the rate is half of its maximum. For `NCCCC(=O)O`, the Michaelis constant (Km) in assay [2] was found to be 4.3 µM. The Vmax (pM min-1 mg-1) in assay [3] was 881.
